{"source": "patent US7625870B2", "about": "“Peptide substance restoring respiratory organs function” (“Access Bioscience” CJSC, priority 2004, dated 2009)", "key": {"[1]": {"system": "sublethal hyperoxic lung injury in rats", "assay": "Sublethal hyperoxic lung injury in rats", "type": "in vivo, rat", "experimental": "The experiment was conducted on 96 white mongrel rats weighing 200-230 g. The animals were divided into three groups: 8 intact animals, 48 control and 40 experimental animals. The animals were exposed to oxygenation by 100% oxygen during 60 hours in the running mode by normal pressure in chamber with oxygen expenditure, providing 8-10 full changes of the gas medium in one hour. Tetrapeptide administration was set out on the 3rd day of being in the normal atmosphere. Experimental animals were administered with the tetrapeptide (intraperitoneal administration in the dose of 0,2 μg/kg of body weight, dissolved in 0.9% sodium chloride solution (natural saline), 10 injections, every other day). […] There were conducted biometrical studies, estimation of BALF cytogram and AM phagocytic activity. BALF cellular content was estimated by coloring of the precipitated cells on the glass following the Leishman-Romanowsky method."}, "male guinea-pigs": {"system": "male guinea-pigs", "conditions": "guinea pig, in vivo", "from_the_text": "(§1) The general toxic effect of tetrapeptide was studied in compliance with “The manual of Experimental (Pre-Clinical) Study of New Pharmacological Substances” (2000): acute toxicity was studied in conditions of tetrapeptide single administration, subacute and chronic toxicity were investigated in conditions of long tetrapeptide administration.\nThe tetrapeptide was investigated for chronic toxicity for 6 months, taking into consideration the recommended period of administration, on 100 male guinea-pigs weighing 300-350 g. The animals of the experimental groups were intramuscularly injected with the tetrapeptide in the doses 1 μg/kg, 0,1 mg/kg, 1 mg/kg in 0,5 ml of natural saline solution, once a day for 6 months. The animals of the control group were administered with natural saline solution in the same amount.\nThese animals were exposed to the assessment of the amount of erythrocytes, hemoglobin, reticulocytes, thrombocytes, leucocytes, leukocytic formula, speed of erythrocytes sedimentation (SES), erythrocytes resistance in peripheral blood. Together with this there was measured the total protein content in the blood serum according to the method of Lowry, potassium and sodium content were measured according to the method of plasma spectrophotometry. On completion of the experiment the animals were subjected to a pathomorphological examination to assess the state of brain and spinal marrow, cerebrospinal ganglia, thyroid gland, adrenal glands, testes, pituitary body, heart, lungs, aorta, liver, kidneys, urinary bladder, pancreas, stomach, small intestine, large intestine, thymus, spleen, lymph nodes, bone marrow."}, "[2]": {"system": "lung tissue explants of mature Wistar rats", "assay": "Growth of lung organotypical culture explants", "type": "cell-based, rat", "conditions": "for SI, % compared to the control: 3 days of incubation", "experimental": "Lung tissue explants of mature Wistar rats were cultivated in petri dishes with collagen bottom cover. The nutritious medium was composed of 35% Eagle's medium, 35% Hanx solution, 25% calf fetal serum and 5% of chicken embryonic extract with added glucose, insulin, gentamycin and glutamin. Ala-Glu-Asp-Leu (SEQ ID NO:1) tetrapeptide was added into the cultural medium in fixed concentrations, from 0,01 to 20,0 ng per ml of nutritious medium. The same amount of natural saline solution was added to the control explants. After 3 days of incubation at the temperature of 37° C. there was assessed an extension of explants' area using phase contrast microscope. Biological activity of the preparation was evaluated by the change of square index (SI) of the explants cultivated in the medium containing the peptide, compared to the control."}, "white mongrel male mice": {"system": "white mongrel male mice", "assay": "Acute toxicity, single intramuscular injection", "type": "in vivo, mouse", "conditions": "dose exceeding the therapeutic one 5000 times", "from_the_text": "as §1\nAcute toxicity was investigated on 60 white mongrel male mice weighing 20-23 g. The animals were randomized to 6 equal groups. They were intramuscularly injected with the tetrapeptide once in the doses of 1 mg/kg, 2 mg/kg, 3 mg/kg, 4 mg/kg, 5 mg/kg in 0.25 ml of natural saline solution. The control animals received the same amount of natural saline solution (0.9%)."}, "[3]": {"system": "acute bacterial lung injury (Staphilococcus aureus 209) in rats", "assay": "Acute inflammation model, bacterial lung injury in rats (BALF cytogram, AM phagocytic activity)", "type": "in vivo, rat", "experimental": "The study was conducted on 120 white mongrel rats with average body weight 200-230 g. The animals were divided at random into 3 groups: 10 (intact), 60 (control) and 50 (experimental). In order to infect the animals there was used twenty-four-hours' culture of Staphilococcus aureus 209, which is tropic to rodents pulmonic tissue. There was also used a cellular suspension 5×10^6 cl/ml with Freind adjuvant (25% of total volume). Before infecting the animals were exposed to a supercooling at temperature −20° C. for 1 hour. Then the animals were infected using light thiopental narcosis (8 mg/100g of body weight) in sterile box. Injections of tetrapeptide were started in 2 days after infecting and were conducted for 7 days (daily, intraperitoneally in dose of 0,2 μg/kg). Control animals were administered with 0.9% NaCl solution. The animals were excluded from the trial on the 1, 3, 6, 10, […] and 20th days by the method of cervical dislocation. In each period there was conducted BAFL testing in order to estimate its cellular content and AM phagocytic activity, superoxid-anion (SA) production and total free radical production by BAFL cells. On the 1 and the 6th days of the study there was conducted lung morphological examination."}, "[4]": {"conditions": "day 3, 0,2 μg/kg intraperitoneally"}, "[5]": {"conditions": "day 6, 0,2 μg/kg intraperitoneally"}, "[6]": {"conditions": "day 10, 0,2 μg/kg intraperitoneally"}, "[7]": {"conditions": "day 15, 0,2 μg/kg intraperitoneally"}, "[8]": {"conditions": "day 20, 0,2 μg/kg intraperitoneally"}, "[9]": {"conditions": "in words, 0,2 μg/kg intraperitoneally"}}, "note": "Marks after values point to notes of the source that are not given here. Peptide text beside a SMILES is read from it."}
{"smiles": "CC(C)C[C@H](NC(=O)[C@H](CC(=O)O)NC(=O)[C@H](CCC(=O)O)NC(=O)[C@H](C)N)C(=O)O", "note": "[Tetrapeptide, L-alanyl-L-glutamyl-L-aspartyl-L-leucine] (H-AEDL-OH)", "values": [{"measurement": "Body weight", "setting": "[1]; 0,2 μg/kg intraperitoneally, 10 injections, day not given", "result": "228 ± 6+ g"}, {"measurement": "Phagocytic activity of AM, Phagocytic index", "setting": "[1]; day 10", "result": "50.8 ± 2.3+"}, {"measurement": "Phagocytic activity of AM, Phagocytic number", "setting": "[1]; day 10", "result": "5.78 ± 0.42*+"}, {"measurement": "Phagocytic activity of AM, Phagocytic index", "setting": "[1]; day 10, listed as tetrapeptide", "result": "50,8±2,3"}, {"measurement": "Phagocytic activity of AM, Phagocytic index", "setting": "[1]; day 20", "result": "45.8 ± 2.6*+"}, {"measurement": "Phagocytic activity of AM, Phagocytic number", "setting": "[1]; day 20", "result": "3.35 ± 0.35+"}, {"measurement": "Phagocytic activity of AM, Phagocytic index", "setting": "[1]; day 20, listed as tetrapeptide", "result": "45,5±2,6"}, {"measurement": "Phagocytic activity of AM, Phagocytic index", "setting": "[1]; day 30", "result": "42.7 ± 2.5"}, {"measurement": "Phagocytic activity of AM, Phagocytic number", "setting": "[1]; day 30", "result": "2.83 ± 0.36"}, {"measurement": "Phagocytic activity of AM, Phagocytic index", "setting": "[1]; day 40", "result": "40.3 ± 2.3"}, {"measurement": "Phagocytic activity of AM, Phagocytic number", "setting": "[1]; day 40", "result": "3.45 ± 0.23"}, {"measurement": "Phagocytic activity of AM, Phagocytic index", "setting": "[1]; day 50", "result": "38.5 ± 2.3"}, {"measurement": "Phagocytic activity of AM, Phagocytic number", "setting": "[1]; day 50", "result": "3.21 ± 0.24"}, {"measurement": "pathomorphological changes manifestation (interstitial fibrosis, atelectasis foci, cellular infiltration)", "setting": "[1]; in words", "result": "decrease"}, {"measurement": "chronic toxicity, side-effects", "setting": "male guinea-pigs", "result": "does not reveal any side-effects"}, {"measurement": "effect on SES, erythrocytes resistance and biochemical indices of blood serum", "setting": "male guinea-pigs", "result": "weren't revealed a reliable effect"}, {"measurement": "number of leucocytes (blood morphological content)", "setting": "male guinea-pigs", "result": "increase"}, {"measurement": "SI, % compared to the control", "setting": "[2]; 0.01 ng/ml", "result": 2, "unit": "%"}, {"measurement": "SI, % compared to the control", "setting": "[2]; 0.1 ng/ml", "result": 14, "unit": "%"}, {"measurement": "SI, % compared to the control", "setting": "[2]; 0.5 ng/ml", "result": 9, "unit": "%"}, {"measurement": "SI, % compared to the control", "setting": "[2]; 1.0 ng/ml", "result": "22* %"}, {"measurement": "SI, % compared to the control", "setting": "[2]; 2.0 ng/ml", "result": "53* %"}, {"measurement": "SI, % compared to the control", "setting": "[2]; 10.0 ng/ml", "result": "25* %"}, {"measurement": "SI, % compared to the control", "setting": "[2]; 20.0 ng/ml", "result": 9, "unit": "%"}, {"measurement": "growth of organotypic lung culture explants", "setting": "[2]; in words, concentrations from 1,0 to 10,0 ng/ml", "result": "reliably stimulates"}, {"measurement": "acute toxicity, toxic reactions", "setting": "white mongrel male mice", "result": "does not cause any toxic reactions"}, {"measurement": "BAFL cytogram, Lymphocytes", "setting": "[3]; [4]", "result": "1.68 ± 0.16 ×10^6 cells/lungs"}, {"measurement": "BAFL cytogram, Macrophages", "setting": "[3]; [4]", "result": "29.7 ± 2.8*+ ×10^6 cells/lungs"}, {"measurement": "BAFL cytogram, Neutrophiles", "setting": "[3]; [4]", "result": "6.98 ± 1.48*+ ×10^6 cells/lungs"}, {"measurement": "Phagocytic index (alveolar macrophages)", "setting": "[3]; [4]", "result": "52.4 ± 2.9*+"}, {"measurement": "Phagocytic number (alveolar macrophages)", "setting": "[3]; [4]", "result": "5.83 ± 0.37*+"}, {"measurement": "BAFL cytogram, Lymphocytes", "setting": "[3]; [5]", "result": "0.86 ± 0.23 ×10^6 cells/lungs"}, {"measurement": "BAFL cytogram, Macrophages", "setting": "[3]; [5]", "result": "24.9 ± 1.2*+ ×10^6 cells/lungs"}, {"measurement": "BAFL cytogram, Neutrophiles", "setting": "[3]; [5]", "result": "0.52 ± 0.18 ×10^6 cells/lungs"}, {"measurement": "Phagocytic index (alveolar macrophages)", "setting": "[3]; [5]", "result": "41.5 ± 3.1+"}, {"measurement": "Phagocytic number (alveolar macrophages)", "setting": "[3]; [5]", "result": "4.98 ± 0.28*+"}, {"measurement": "BAFL cytogram, Lymphocytes", "setting": "[3]; [6]", "result": "0.59 ± 0.28 ×10^6 cells/lungs"}, {"measurement": "BAFL cytogram, Macrophages", "setting": "[3]; [6]", "result": "19.2 ± 2.8*+ ×10^6 cells/lungs"}, {"measurement": "BAFL cytogram, Neutrophiles", "setting": "[3]; [6]", "result": "0.31 ± 0.18 ×10^6 cells/lungs"}, {"measurement": "Phagocytic index (alveolar macrophages)", "setting": "[3]; [6]", "result": "49.2 ± 2.8+"}, {"measurement": "Phagocytic number (alveolar macrophages)", "setting": "[3]; [6]", "result": "2.98 ± 0.32+"}, {"measurement": "BAFL cytogram, Lymphocytes", "setting": "[3]; [7]", "result": "0.79 ± 0.20 ×10^6 cells/lungs"}, {"measurement": "BAFL cytogram, Macrophages", "setting": "[3]; [7]", "result": "16.3 ± 2.8 ×10^6 cells/lungs"}, {"measurement": "BAFL cytogram, Neutrophiles", "setting": "[3]; [7]", "result": "0.21 ± 0.16 ×10^6 cells/lungs"}, {"measurement": "Phagocytic index (alveolar macrophages)", "setting": "[3]; [7]", "result": "55.9 ± 4.2"}, {"measurement": "Phagocytic number (alveolar macrophages)", "setting": "[3]; [7]", "result": "3.74 ± 0.25"}, {"measurement": "BAFL cytogram, Lymphocytes", "setting": "[3]; [8]", "result": "0.56 ± 0.17 ×10^6 cells/lungs"}, {"measurement": "BAFL cytogram, Macrophages", "setting": "[3]; [8]", "result": "14.6 ± 2.1 ×10^6 cells/lungs"}, {"measurement": "BAFL cytogram, Neutrophiles", "setting": "[3]; [8]", "result": "0.25 ± 0.11 ×10^6 cells/lungs"}, {"measurement": "Phagocytic index (alveolar macrophages)", "setting": "[3]; [8]", "result": "49.3 ± 3.6"}, {"measurement": "Phagocytic number (alveolar macrophages)", "setting": "[3]; [8]", "result": "3.68 ± 0.31"}, {"measurement": "basal and zymosan-stimulated production of SA (superoxid-anion) by AM", "setting": "[3]; [9]", "result": "reliably increases"}, {"measurement": "normalization of free radical production of BALF cells", "setting": "[3]; [9]", "result": "more rapid normalization"}, {"measurement": "processes of lung tissue reparation", "setting": "[3]; in words, dose of 0,2 μg/kg of body weight", "result": "speeding-up"}]}
